PubChem BioAssay (NCI)
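Exposure lasted 48 hours, with cells grown in 96-well plates and compounds tested at five concentrations. TGI is the concentration that stops growth completely.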

Legend:
Assay in all cases: growth of human tumour cells (NCI), 48 h
786-0 renal = test system: 786-0 renal
A498 renal = test system: A498 renal
A549 NSCLC = test system: A549 NSCLC
ACHN renal = test system: ACHN renal
BT-549 breast = test system: BT-549 breast
CAKI-1 renal = test system: CAKI-1 renal
CCRF-CEM leukemia = test system: CCRF-CEM leukemia
COLO 205 colon = test system: COLO 205 colon
DU-145 prostate = test system: DU-145 prostate
EKVX NSCLC = test system: EKVX NSCLC
HCC-2998 colon = test system: HCC-2998 colon
HCT-116 colon = test system: HCT-116 colon
HCT-15 colon = test system: HCT-15 colon
HL-60(TB) leukemia = test system: HL-60(TB) leukemia
HOP-62 NSCLC = test system: HOP-62 NSCLC
HOP-92 NSCLC = test system: HOP-92 NSCLC
HS 578T breast = test system: HS 578T breast
HT29 colon = test system: HT29 colon
IGROV1 ovarian = test system: IGROV1 ovarian
K-562 leukemia = test system: K-562 leukemia
KM12 colon = test system: KM12 colon
LOX IMVI melanoma = test system: LOX IMVI melanoma
M14 melanoma = test system: M14 melanoma
MALME-3M melanoma = test system: MALME-3M melanoma
MCF7 breast = test system: MCF7 breast
MDA-MB-231 breast = test system: MDA-MB-231 breast
MDA-MB-435 = test system: MDA-MB-435
MDA-N = test system: MDA-N
MOLT-4 leukemia = test system: MOLT-4 leukemia
NCI-H226 lung = test system: NCI-H226 lung
NCI-H23 lung = test system: NCI-H23 lung
NCI-H460 lung = test system: NCI-H460 lung
NCI-H522 lung = test system: NCI-H522 lung
NCI/ADR-RES ovarian = test system: NCI/ADR-RES ovarian
OVCAR-3 ovarian = test system: OVCAR-3 ovarian
OVCAR-4 ovarian = test system: OVCAR-4 ovarian
OVCAR-5 ovarian = test system: OVCAR-5 ovarian
OVCAR-8 ovarian = test system: OVCAR-8 ovarian
PC-3 prostate = test system: PC-3 prostate
RPMI-8226 leukemia = test system: RPMI-8226 leukemia
RXF 393 renal = test system: RXF 393 renal
SF-268 CNS = test system: SF-268 CNS
SF-295 CNS = test system: SF-295 CNS
SF-539 CNS = test system: SF-539 CNS
SK-MEL-2 melanoma = test system: SK-MEL-2 melanoma
SK-MEL-28 melanoma = test system: SK-MEL-28 melanoma
SK-MEL-5 melanoma = test system: SK-MEL-5 melanoma
SK-OV-3 ovarian = test system: SK-OV-3 ovarian
SN12C renal = test system: SN12C renal
SNB-19 CNS = test system: SNB-19 CNS
SNB-75 CNS = test system: SNB-75 CNS
SR leukemia = test system: SR leukemia
SW-620 colon = test system: SW-620 colon
T-47D breast = test system: T-47D breast
TK-10 renal = test system: TK-10 renal
U251 CNS = test system: U251 CNS
UACC-257 melanoma = test system: UACC-257 melanoma
UACC-62 melanoma = test system: UACC-62 melanoma
UO-31 renal = test system: UO-31 renal
DLD-1 colon = test system: DLD-1 colon
DMS 114 small cell lung = test system: DMS 114 small cell lung
DMS 273 small cell lung = test system: DMS 273 small cell lung
HOP-18 NSCLC = test system: HOP-18 NSCLC
KM20L2 colon = test system: KM20L2 colon
LXFL 529 NSCLC = test system: LXFL 529 NSCLC
M19-MEL melanoma = test system: M19-MEL melanoma
SNB-78 CNS = test system: SNB-78 CNS

## COc1cc(OC)c(-c2cc(=O)c3c(OC)c(OC)c(OC)c(OC)c3o2)cc1OC
786-0 renal
  TGI: > 100 µM
A498 renal
  TGI: > 100 µM
A549 NSCLC
  TGI: > 100 µM
ACHN renal
  TGI: > 100 µM
BT-549 breast
  TGI: > 100 µM
CAKI-1 renal
  TGI: > 100 µM
CCRF-CEM leukemia
  TGI: > 100 µM
COLO 205 colon
  TGI: > 100 µM
DU-145 prostate
  TGI: > 100 µM
EKVX NSCLC
  TGI: > 100 µM
HCC-2998 colon
  TGI: > 100 µM
HCT-116 colon
  TGI: > 100 µM
HCT-15 colon
  TGI: > 100 µM
HL-60(TB) leukemia
  TGI: > 64.6 µM
HOP-62 NSCLC
  TGI: > 100 µM
HOP-92 NSCLC
  TGI: 59 µM
HS 578T breast
  TGI: > 100 µM
HT29 colon
  TGI: > 100 µM
IGROV1 ovarian
  TGI: > 100 µM
K-562 leukemia
  TGI: > 100 µM
KM12 colon
  TGI: > 100 µM
LOX IMVI melanoma
  TGI: > 100 µM
M14 melanoma
  TGI: > 100 µM
MALME-3M melanoma
  TGI: > 100 µM
MCF7 breast
  TGI: > 100 µM
MDA-MB-231 breast
  TGI: > 100 µM
MDA-MB-435
  TGI: > 100 µM
MDA-N
  TGI: > 100 µM
MOLT-4 leukemia
  TGI: > 100 µM
NCI-H226 lung
  TGI: > 100 µM
NCI-H23 lung
  TGI: > 100 µM
NCI-H460 lung
  TGI: > 100 µM
NCI-H522 lung
  TGI: > 100 µM
NCI/ADR-RES ovarian
  TGI: > 100 µM
OVCAR-3 ovarian
  TGI: > 100 µM
OVCAR-4 ovarian
  TGI: > 100 µM
OVCAR-5 ovarian
  TGI: > 100 µM
OVCAR-8 ovarian
  TGI: > 100 µM
PC-3 prostate
  TGI: > 100 µM
RPMI-8226 leukemia
  TGI: > 100 µM
RXF 393 renal
  TGI: > 100 µM
SF-268 CNS
  TGI: > 100 µM
SF-295 CNS
  TGI: > 100 µM
SF-539 CNS
  TGI: > 100 µM
SK-MEL-2 melanoma
  TGI: > 100 µM
SK-MEL-28 melanoma
  TGI: > 100 µM
SK-MEL-5 melanoma
  TGI: > 100 µM
SK-OV-3 ovarian
  TGI: > 100 µM
SN12C renal
  TGI: > 100 µM
SNB-19 CNS
  TGI: > 100 µM
SNB-75 CNS
  TGI: > 73.9 µM
SR leukemia
  TGI: > 100 µM
SW-620 colon
  TGI: > 100 µM
T-47D breast
  TGI: > 100 µM
TK-10 renal
  TGI: > 100 µM
U251 CNS
  TGI: > 100 µM
UACC-257 melanoma
  TGI: > 100 µM
UACC-62 melanoma
  TGI: > 88.5 µM
UO-31 renal
  TGI: > 100 µM

## CCCCN(CC)C(=O)C(=O)C1C(=O)Nc2ccccc2S1=O (stereo not drawn)
786-0 renal
  TGI: > 100 µM
A498 renal
  TGI: > 100 µM
A549 NSCLC
  TGI: > 100 µM
ACHN renal
  TGI: > 100 µM
CAKI-1 renal
  TGI: > 100 µM
CCRF-CEM leukemia
  TGI: > 100 µM
COLO 205 colon
  TGI: > 100 µM
DLD-1 colon
  TGI: > 100 µM
DMS 114 small cell lung
  TGI: > 100 µM
DMS 273 small cell lung
  TGI: > 100 µM
EKVX NSCLC
  TGI: > 100 µM
HCC-2998 colon
  TGI: > 100 µM
HCT-116 colon
  TGI: > 100 µM
HCT-15 colon
  TGI: > 100 µM
HOP-18 NSCLC
  TGI: > 100 µM
HOP-62 NSCLC
  TGI: > 100 µM
HOP-92 NSCLC
  TGI: > 100 µM
HT29 colon
  TGI: > 100 µM
IGROV1 ovarian
  TGI: > 100 µM
K-562 leukemia
  TGI: > 100 µM
KM12 colon
  TGI: > 100 µM
KM20L2 colon
  TGI: > 100 µM
LOX IMVI melanoma
  TGI: > 100 µM
LXFL 529 NSCLC
  TGI: > 100 µM
M14 melanoma
  TGI: > 100 µM
M19-MEL melanoma
  TGI: > 100 µM
MALME-3M melanoma
  TGI: > 100 µM
MOLT-4 leukemia
  TGI: > 100 µM
NCI-H226 lung
  TGI: > 100 µM
NCI-H23 lung
  TGI: > 100 µM
NCI-H460 lung
  TGI: > 100 µM
NCI-H522 lung
  TGI: > 100 µM
OVCAR-3 ovarian
  TGI: > 100 µM
OVCAR-4 ovarian
  TGI: > 100 µM
OVCAR-5 ovarian
  TGI: > 100 µM
OVCAR-8 ovarian
  TGI: > 100 µM
RPMI-8226 leukemia
  TGI: > 100 µM
RXF 393 renal
  TGI: > 100 µM
SF-268 CNS
  TGI: > 100 µM
SF-539 CNS
  TGI: > 100 µM
SK-MEL-2 melanoma
  TGI: > 100 µM
SK-MEL-28 melanoma
  TGI: > 100 µM
SK-MEL-5 melanoma
  TGI: > 100 µM
SK-OV-3 ovarian
  TGI: > 100 µM
SN12C renal
  TGI: > 100 µM
SNB-19 CNS
  TGI: > 100 µM
SNB-75 CNS
  TGI: > 100 µM
SNB-78 CNS
  TGI: > 100 µM
SW-620 colon
  TGI: > 100 µM
TK-10 renal
  TGI: > 100 µM
U251 CNS
  TGI: > 100 µM
UACC-257 melanoma
  TGI: > 100 µM
UACC-62 melanoma
  TGI: > 100 µM
UO-31 renal
  TGI: > 100 µM
